Among the data in US12570675B2, “Boronic acid compounds” (LG CHEM, LTD., priority 2020, dated 2026) are IC50 values, retold here.

Experiment [1] addresses Proteasome chymotrypsin-like activity (S26 protein from RPMI8226 cells) (Homo sapiens, UniProt P28074). It counts as biochemical. Conditions: S26 protein from RPMI8226 cell extract 2 ug/well, substrate 20 uM, 37° C., 90 minutes; read-out: Proteasome chymotrypsin-like activity inhibition IC50. Put shortly: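 Fluorogenic AMC substrates (20 uM final) report chymotrypsin-like (Suc-Leu-Leu-Val-Tyr-AMC) or caspase-like (Z-Leu-Leu-Glu-AMC) cleavage by RPMI8226-derived S26 protein, 2 ug/well, pH 8.0 Tris lysate.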

The target in experiment [2] is Proteasome caspase-like activity (S26 protein from RPMI8226 cells) (Homo sapiens (Human), UniProt P28072). The experiment in a line: Proteasome caspase-like activity inhibition (Z-Leu-Leu-Glu-AMC fluorogenic substrate, RPMI8226 cell extract). It counts as biochemical. To be noted: S26 protein from RPMI8226 cell extract 2 ug/well, substrate 20 uM, 37° C., 90 minutes. The procedure:
The abilities to inhibit the proteasome activity of the compounds described in the Examples of the present invention and boronic acid drugs were evaluated as follows.
RPMI8226 cells, which is a multiple myeloma cell line, were cultured and then separated by a centrifuge, and washed twice with phosphate buffered saline (PBS). 20 mM of a tris-HCl (pH 8.0) buffer solution was added to the washed cells, and the cells were disrupted by a homogenizer and centrifuged to obtain S26 protein from the supernatant. Suc-Leu-Leu-Val-Tyr-AMC, for a fluorogenic substrate for the chymotrypsin-like activity of the proteasome, and Z-Leu-Leu-Glu-AMC, for a fluorogenic substrate for the caspase-like activity, were purchased from Calbiochem, EMD Millipore and used. Into each well of a 96-well plate (opaque, black round bottom), 20 ul of the S26 protein (final RPMI8226 cell extract concentration: 2 ug/well), 10 ul of S26 proteasome inhibitor serially diluted from 10 uM (final DMSO concentration: 0.5%), and 20 ul of the fluorogenic substrate for the proteasome chymotrypsin-like or caspase-like activity (final concentration: 20 uM) were added and mixed and allowed to react in a 37° C. incubator for 90 minutes. The fluorescence of the fluorogenic substrate was measured by FlexStation II Fluorometer (Molecular Devices). The fluorescence inhibited by the compound diluted at each concentration was measured as the relative percentage value for the amount obtained from the treatment only with the S26 protein and the fluorogenic substrate. IC50 (inhibitory concentration 50) was expressed in terms of a concentration that inhibits 50% of the maximum fluorescence induced by the fluorogenic substrate.

Proteasome chymotrypsin-like activity (S26 protein from RPMI8226 cells), sequence (P28074 60-263 limits assumed): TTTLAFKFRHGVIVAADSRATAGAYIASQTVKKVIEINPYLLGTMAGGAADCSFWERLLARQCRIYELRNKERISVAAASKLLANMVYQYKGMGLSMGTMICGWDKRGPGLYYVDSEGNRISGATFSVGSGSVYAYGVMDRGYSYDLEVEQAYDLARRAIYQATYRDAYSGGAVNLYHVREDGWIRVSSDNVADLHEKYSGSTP
Proteasome caspase-like activity (S26 protein from RPMI8226 cells), sequence (P28072 whole entry): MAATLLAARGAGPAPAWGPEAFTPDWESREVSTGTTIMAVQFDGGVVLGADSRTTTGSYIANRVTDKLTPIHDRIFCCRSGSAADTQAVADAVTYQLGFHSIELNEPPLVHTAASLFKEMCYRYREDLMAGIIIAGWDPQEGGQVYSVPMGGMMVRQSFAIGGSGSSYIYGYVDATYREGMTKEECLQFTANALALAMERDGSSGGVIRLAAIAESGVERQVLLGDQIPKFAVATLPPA

Take `Cc1cccc(C(=O)NCC2=NOC(Cc3ccccc3)(C(=O)N[C@@H](CC(C)C)B(O)O)C2)n1` (stereo partly drawn) [Example 160, ((1R)-1-(5-benzyl-3-((6-methylpicolinamido)methyl)-4,5-dihydroisoxazol-5-carboxamido)-3-methylbutyl)boronic acid]: the IC50 is less than 10 nM in experiment [1] and greater than 500 nM in experiment [2].

On to `CC(C)C[C@H](NC(=O)C1CC(CNC(=O)c2nccc3ccccc23)=NO1)B(O)O` (stereo partly drawn) [Example 61, ((1R)-1-(3-((isoquinolin-1-carboxamido)methyl)-4,5-dihydroisoxazol-5-carboxamido)-3-methylbutyl)boronic acid], for which the concentration for half-maximal inhibition (IC50) was less than 10 nM in experiment [1] and greater than 500 nM in experiment [2].

Regarding `Cc1ccc(F)cc1C(=O)NCC1=NOC(C(=O)N[C@@H](CC(C)C)B(O)O)C1` (stereo partly drawn) [Example 82, ((1R)-1-(3-((5-fluoro-2-methylbenzamido)methyl)-4,5-dihydroisoxazol-5-carboxamido)-3-methylbutyl)boronic acid], the concentration for half-maximal inhibition (IC50) in experiment [1] is less than 50 nM; in experiment [2], greater than 500 nM.

With `CCC1(C(=O)N[C@@H](CC(C)C)B(O)O)CC(CNC(=O)c2cc(Cl)ccc2Cl)=NO1` (stereo partly drawn) [Example 87, ((1R)-1-(3-((2,5-dichlorobenzamido)methyl)-5-ethyl-4,5-dihydroisoxazol-5-carboxamido)-3-methylbutyl)boronic acid], the values for the 50% inhibitory concentration (IC50) in experiment [1] and in experiment [2] were less than 50 nM and greater than 2500 nM, respectively.

As to `CC(C)C[C@H](NC(=O)C1CC(CNC(=O)c2cc(Cl)ccc2Cl)=NO1)B(O)O` (stereo partly drawn) [Example 68, ((1R)-1-(3-((2,5-dichlorobenzamido)methyl)-4,5-dihydroisoxazol-5-carboxamido)-3-methylbutyl)boronic acid], the IC50 is less than 10 nM in experiment [1] and greater than 500 nM in experiment [2].

For `Cc1cc(C(=O)NCC2=NOC(Cc3ccccc3)(C(=O)N[C@@H](CC(C)C)B(O)O)C2)n(C(C)C)n1` (stereo partly drawn) [Example 190, ((1R)-1-(5-benzyl-3-((1-isopropyl-3-methyl-1H-pyrazol-5-carboxamido)methyl)-4,5-dihydroisoxazol-5-carboxamido)-3-methylbutyl)boronic acid], the results for the concentration for half-maximal inhibition (IC50) in experiment [1] and in experiment [2] were less than 10 nM and greater than 2500 nM, respectively.

Regarding `CC(C)C[C@H](NC(=O)C1(Cc2ccccc2)CC(CNC(=O)c2ccc3c(ccn3C(C)C)c2)=NO1)B(O)O` (stereo partly drawn) [Example 129, ((1R)-1-(5-benzyl-3-((1-isopropyl-1H-indol-5-carboxamido)methyl)-4,5-dihydroisoxazol-5-carboxamido)-3-methylbutyl)boronic acid], the results for the half-maximal inhibitory concentration (IC50) in experiment [1] and in experiment [2] were less than 10 nM and greater than 250 nM, respectively.

`CC(C)C[C@H](NC(=O)C1CC([C@H](CC(C)C)NC(=O)c2cc(Cl)ccc2Cl)=NO1)B(O)O` (stereo partly drawn) [Example 74, ((1R)-1-(3-((S)-1-(2,5-dichlorobenzamido)-3-methylbutyl)-4,5-dihydroisoxazol-5-carboxamido)-3-methylbutyl)boronic acid]: the 50% inhibitory concentration (IC50) in experiment [1] is less than 25 nM; in experiment [2] it was greater than 500 nM.

With `CC(C)C[C@H](NC(=O)C1CC(CNC(=O)c2ccccc2)=NO1)B(O)O` (stereo partly drawn) [Example 59, ((1R)-1-(3-(benzamidomethyl)-4,5-dihydroisoxazol-5-carboxamido)-3-methylbutyl)boronic acid], the IC50 was less than 100 nM in experiment [1] and greater than 500 nM in experiment [2].

As to `CC(C)C[C@H](NC(=O)C1(Cc2ccccc2)CC([C@H](C)NC(=O)c2nccc3ccccc23)=NO1)B(O)O` (stereo partly drawn) [Example 145, ((1R)-1-(5-benzyl-3-((S)-1-(isoquinolin-1-carboxamido)ethyl)-4,5-dihydroisoxazol-5-carboxamido)-3-methylbutyl)boronic acid], the figures for the concentration for half-maximal inhibition (IC50) in experiment [1] and in experiment [2] were less than 10 nM and greater than 2500 nM, respectively.

Take `Cc1cc(C(=O)NCC2=NOC(Cc3ccccc3)(C(=O)N[C@@H](CC(C)C)B(O)O)C2)n(C2CCCC2)n1` (stereo partly drawn) [Example 196, ((1R)-1-(5-benzyl-3-((1-cyclopentyl-3-methyl-1H-pyrazol-5-carboxamido)methyl)-4,5-dihydroisoxazol-5-carboxamido)-3-methylbutyl)boronic acid]: the IC50 in experiment [1] was less than 10 nM; in experiment [2], greater than 1000 nM.

With `Cc1nc(C)c(C(=O)NCC2=NOC(Cc3ccccc3)(C(=O)N[C@@H](CC(C)C)B(O)O)C2)s1` (stereo partly drawn) [Example 130, ((1R)-1-(5-benzyl-3-((2,4-dimethylthiazol-5-carboxamido)methyl)-4,5-dihydroisoxazol-5-carboxamido)-3-methylbutyl)boronic acid], the IC50 in experiment [1] was less than 10 nM; in experiment [2], greater than 500 nM.

As to `CC(C)C[C@H](NC(=O)C1(Cc2ccccc2)CC(CNC(=O)c2cccc3cccnc23)=NO1)B(O)O` (stereo partly drawn) [Example 113, ((1R)-1-(5-benzyl-3-((quinolin-8-carboxamido)methyl)-4,5-dihydroisoxazol-5-carboxamido)-3-methylbutyl)boronic acid], the IC50 in experiment [1] is less than 10 nM; in experiment [2], greater than 500 nM.

With `CC(C)C[C@H](NC(=O)C1CC(COCc2ccccc2)=NO1)B(O)O` (stereo partly drawn) [Example 252], the figures for the IC50 in experiment [1] and in experiment [2] were less than 100 nM and greater than 500 nM, respectively.

For the molecule `Cc1cccc(CC2(C(=O)N[C@@H](CC(C)C)B(O)O)CC(CNC(=O)c3nccc4ccccc34)=NO2)c1` (stereo partly drawn) [Example 125, ((1R)-1-(3-((isoquinolin-1-carboxamido)methyl)-5-(3-methylbenzyl)-4,5-dihydroisoxazol-5-carboxamido)-3-methylbutyl)boronic acid], the results for the IC50 in experiment [1] and in experiment [2] were less than 10 nM and greater than 500 nM, respectively.

As to `CC(C)C[C@H](NC(=O)C1(Cc2ccccc2)CC(CNC(=O)c2cccn3ccnc23)=NO1)B(O)O` (stereo partly drawn) [Example 132, ((1R)-1-(5-benzyl-3-((imidazo[1,2-a]pyridin-8-carboxamido)methyl)-4,5-dihydroisoxazol-5-carboxamido)-3-methylbutyl)boronic acid], the IC50 in experiment [1] was less than 10 nM; in experiment [2] it was greater than 250 nM.

Take `CC(C)C[C@H](NC(=O)CNC(=O)c1cc(Cl)ccc1Cl)B(O)O` [ixazomib]: the IC50 in experiment [2] is 7 nM.

As to `CC(C)C[C@H](NC(=O)C1(Cc2ccccc2)CC(COCc2cccc(Br)n2)=NO1)B(O)O` (stereo partly drawn) [Example 53, ((1R)-1-(5-benzyl-3-(((6-bromopyridin-2-yl)methoxy)methyl)-4,5-dihydroisoxazol-5-carboxamido)-3-methylbutyl)boronic acid], the IC50 in experiment [1] is less than 10 nM.

For `CC[C@H](NC(=O)C1(Cc2ccccc2)CC(CNC(=O)c2nccc3ccccc23)=NO1)B(O)O` (stereo partly drawn) [Example 289, ((1R)-1-(5-benzyl-3-((isoquinolin-1-carboxamido)methyl)-4,5-dihydroisoxazol-5-carboxamido)propyl)boronic acid], the half-maximal inhibitory concentration (IC50) in experiment [1] is less than 25 nM.

Consider `CC(C)C[C@H](NC(=O)C1(Cc2ccccc2C(F)(F)F)CC(CNC(=O)c2nccc3ccccc23)=NO1)B(O)O` (stereo partly drawn) [Example 167, ((1R)-1-(3-((isoquinolin-1-carboxamido)methyl)-5-(2-(trifluoromethyl)benzyl)-4,5-dihydroisoxazol-5-carboxamido)-3-methylbutyl)boronic acid], for which the IC50 in experiment [1] is less than 10 nM.

Consider `COc1cccc(CC2(C(=O)N[C@@H](CC(C)C)B(O)O)CC(CNC(=O)c3cc(-c4ccccc4)nn3C(C)C)=NO2)c1` (stereo partly drawn) [Example 230, ((1R)-1-(3-((1-isopropyl-3-phenyl-1H-pyrazol-5-carboxamido)methyl)-5-(3-methoxybenzyl)-4,5-dihydroisoxazol-5-carboxamido)-3-methylbutyl)boronic acid], for which, in experiment [1], the 50% inhibitory concentration (IC50) is less than 10 nM.

As to `O=C(N[C@@H](Cc1ccccc1)B(O)O)C1(Cc2ccccc2)CC(COc2cccc(Cl)c2)=NO1` (stereo partly drawn) [Example 259, ((1R)-1-(5-benzyl-3-((3-chlorophenoxy)methyl)-4,5-dihydroisoxazol-5-carboxamido)-2-phenylethyl)boronic acid], in experiment [1], the concentration for half-maximal inhibition (IC50) is less than 50 nM.

For the molecule `CC(C)C[C@H](NC(=O)C1(Cc2ccccc2)CC(CNC(=O)C2(c3ccccc3)CC2)=NO1)B(O)O` (stereo partly drawn) [Example 118, ((1R)-1-(5-benzyl-3-((1-phenylcyclopropan-1-carboxamido)methyl)-4,5-dihydroisoxazol-5-carboxamido)-3-methylbutyl)boronic acid], the half-maximal inhibitory concentration (IC50) in experiment [1] is less than 25 nM.

As for `CC(C)C[C@H](NC(=O)C1CC(c2ccccc2OC(F)(F)F)=NO1)B(O)O` (stereo partly drawn) [Example 39, ((1R)-3-methyl-1-(3-(2-(trifluoromethoxy)phenyl)-4,5-dihydroisoxazol-5-carboxamido)butyl)boronic acid], the IC50 in experiment [1] was less than 500 nM.

As for `CC(C)C[C@H](NC(=O)C1(Cc2ccccc2)CC(CNC(=O)c2ccnc(Cl)c2)=NO1)B(O)O` (stereo partly drawn) [Example 311], the IC50 in experiment [1] was less than 10 nM.

`CC(C)C[C@H](NC(=O)C1CC(CNC(=O)c2cnccn2)=NO1)B(O)O` (stereo partly drawn) [Example 83, ((1R)-3-methyl-1-(3-((pyrazin-2-carboxamido)methyl)-4,5-dihydroisoxazol-5-carboxamido)butyl)boronic acid]: the IC50 in experiment [1] was less than 250 nM.
